In PubChem BioAssay AID1963966 (Molecular Pharmacology Branch, DTP, NCI, 2024):
pIC50: −log10 of the molar value.

Test system: 935938-334-R-J1-PDC spheroids with HUVEC/MSC, viability
Assay: Anticancer human tumor 935938-334-R-J1-PDC patient-derived small intestine adenocarcinoma cell line growth inhibition [PI3K]
Conditions: for pIC50: curve of first compound; for viability, T/C: stronger effect = lower value; active means viability on the fitted dose curve at most 10% of control; inactive means the rest
Text: Combinatorial screen of targeted agents with the PI3K inhibitors inavolisib, alpelisib, duvelisib, and copanlisib in multi-cell type tumor spheroids
A high-throughput screen of multi-cell type tumor spheroids was designed to identify active combinations of targeted small molecules and PI3K pathway inhibitors. Complex spheroids include a stromal component modeled by human endothelial cells (HUVEC) and fibroblasts modeled by human mesenchymal stem cells (MSCs). The concentration ranges selected for each drug and investigational agent were based upon clinically achievable concentrations if the clinical Cmax of the agent was known.
Compounds. The drugs and investigational agents: inavolisib (NSC800729), alpelisib (NSC765974), duvelisib (NSC772469), copanlisib (NSC816437), ipatasertib (NSC767898), afuresertib (NSC778305), talazoparib (NSC767125), sapanisertib (NSC764658), selumetinib (NSC741078), tovorafenib (DAY101, NSC766906), vemurafenib (NSC761431), ravoxertinib (NSC781343), sotorasib (NSC818433), MRTX1133 (NSC 836407), abemaciclib (NSC 768073), palbociclib (NSC758247), venetoclax (NSC 766270), SY5609 (NSC837396), enzalutamide (NSC755605), and darolutamide (NSC825331), were obtained from the National Cancer Institute (NCI) Developmental Therapeutics Program Chemical Repository. The FDA-approved anticancer drug set is available from the NCI Developmental Therapeutics Program. […] The stock solutions were prepared in dimethyl sulfoxide (DMSO, Sigma-Aldrich, St. Louis, MO, cat. D2650) at 800-fold the tested concentration and stored at -70 degrees C prior to their use. All drugs and investigational agents were tested over a range starting from a high concentration at or near the clinical Cmax and decreasing in half-log increments. If the clinical Cmax for an agent had not been determined, the highest concentration tested was 10 microM.
Cell Culture. All cells were maintained in an incubator at 37 degrees C and 5% CO2 with 95% humidity. The PDC lines were cultured according to standard operating procedures established by the NCI PDMR (https://pdmr.cancer.gov/sops/default.htm). All PDCs were thawed and cultured in Matrigel-coated flasks prepared with a working solution of 1X Ham's F-12 nutrient mix, without supplementation (Invitrogen, Waltham, MA, cat. 11765054), 100 U/mL penicillin-streptomycin (Invitrogen, cat. 15140122), and 2.5% Matrigel (Corning Inc., Corning, NY, cat. 354248) for the first three passages. The 354836-022-R-J1-PDC, 475296-252-R-J1-PDC, and 997726-040-R-J2-PDC lines were cultured in 6A media, which includes advanced DMEM/F-12 (Thermo Fisher Scientific, cat. 12634028), 10 mM HEPES (Thermo Fisher Scientific, cat. 15630080), 1X GlutaMAX supplement (Thermo Fisher Scientific, cat. 35050061), 0.1 mg/mL primocin (InvivoGen, San Diego, CA, cat. ant-pm-2), 10% defined fetal bovine serum, heat inactivated (HyClone Laboratories Inc., Logan, UT, cat. SH30070.03HI), 50% L-WRN conditioned media (ATCC, cat. CRL-3276), 1.25 mM N-Acetyl-L-cysteine (Sigma-Aldrich, cat. A9165), 10 mM nicotinamide (Sigma-Aldrich, cat. N0636), 1X B-27 supplement (Thermo Fisher Scientific, cat. 17504044), 1X N-2 supplement (Thermo Fisher Scientific, cat. 17502048), and 10 microM Y-27632 dihydrochloride (Tocris Bioscience, Bristol, United Kingdom, cat. 1254). The 624824-186-R-J2-PDC line was cultured in 6C/Colon 1B media, which includes all 6A media components plus 50 ng/mL human EGF recombinant protein (Thermo Fisher Scientific, cat. PHG0311). […]
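Further: compound exposure lasted seven days before viability was read.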
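Wherever viability, T/C is given: percent of vehicle DMSO treated spheroid viability so 100% = untreated.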

CNC(=O)c1ccc(N2C(=S)N(c3ccc(C#N)c(C(F)(F)F)c3)C(=O)C2(C)C)cc1F + CC(Nc1ccc2c(c1)OCCn1cc(N3C(=O)OCC3C(F)F)nc1-2)C(N)=O
5.50: pIC50 (second compound 1 µM)
< 5.00: pIC50 (second compound 0.00316 µM) | pIC50 (second compound 0.01 µM) | pIC50 (second compound 0.0316 µM) | pIC50 (second compound 0.1 µM) | pIC50 (second compound 0.316 µM)
inactive: viability, T/C (second compound 0.00316 µM, first compound 0.0316 µM) 99.4% | viability, T/C (second compound 0.00316 µM, first compound 0.1 µM) 108% | viability, T/C (second compound 0.00316 µM, first compound 0.316 µM) 99.5% | viability, T/C (second compound 0.00316 µM, first compound 1 µM) 102% | viability, T/C (second compound 0.00316 µM, first compound 3.16 µM) 97.1% | viability, T/C (second compound 0.00316 µM, first compound 10 µM) 86% | viability, T/C (second compound 0.01 µM, first compound 0.0316 µM) 99.9% | viability, T/C (second compound 0.01 µM, first compound 0.1 µM) 89.9% | viability, T/C (second compound 0.01 µM, first compound 0.316 µM) 108% | viability, T/C (second compound 0.01 µM, first compound 1 µM) 78.3% | viability, T/C (second compound 0.01 µM, first compound 3.16 µM) 102% | viability, T/C (second compound 0.01 µM, first compound 10 µM) 97.6% | viability, T/C (second compound 0.0316 µM, first compound 0.0316 µM) 102% | viability, T/C (second compound 0.0316 µM, first compound 0.1 µM) 95.6% | viability, T/C (second compound 0.0316 µM, first compound 0.316 µM) 90.7% | viability, T/C (second compound 0.0316 µM, first compound 1 µM) 110% | viability, T/C (second compound 0.0316 µM, first compound 3.16 µM) 97.8% | viability, T/C (second compound 0.0316 µM, first compound 10 µM) 86.3% | viability, T/C (second compound 0.1 µM, first compound 0.0316 µM) 80.4% | viability, T/C (second compound 0.1 µM, first compound 0.1 µM) 99.4% | viability, T/C (second compound 0.1 µM, first compound 0.316 µM) 90.3% | viability, T/C (second compound 0.1 µM, first compound 1 µM) 93.8% | viability, T/C (second compound 0.1 µM, first compound 3.16 µM) 79.2% | viability, T/C (second compound 0.1 µM, first compound 10 µM) 105% | viability, T/C (second compound 0.316 µM, first compound 0.0316 µM) 86.9% | viability, T/C (second compound 0.316 µM, first compound 0.1 µM) 72.7% | viability, T/C (second compound 0.316 µM, first compound 0.316 µM) 73.7% | viability, T/C (second compound 0.316 µM, first compound 1 µM) 83.1% | viability, T/C (second compound 0.316 µM, first compound 3.16 µM) 82.4% | viability, T/C (second compound 0.316 µM, first compound 10 µM) 64.7% | viability, T/C (second compound 1 µM, first compound 0.0316 µM) 61.6% | viability, T/C (second compound 1 µM, first compound 0.1 µM) 66.5% | viability, T/C (second compound 1 µM, first compound 0.316 µM) 72.7% | viability, T/C (second compound 1 µM, first compound 1 µM) 43.7% | viability, T/C (second compound 1 µM, first compound 3.16 µM) 61.5% | viability, T/C (second compound 1 µM, first compound 10 µM) 53.3%

Cn1cnc2c(F)c(Nc3ccc(Br)cc3Cl)c(C(=O)NOCCO)cc21 + CC(Nc1ccc2c(c1)OCCn1cc(N3C(=O)OCC3C(F)F)nc1-2)C(N)=O
7.52: pIC50 (second compound 0.01 µM)
7.56: pIC50 (second compound 0.1 µM)
inactive: viability, T/C (second compound 0.00316 µM, first compound 0.00949 µM) 86.3% | viability, T/C (second compound 0.00316 µM, first compound 0.03 µM) 57.2% | viability, T/C (second compound 0.00316 µM, first compound 0.0949 µM) 39.2% | viability, T/C (second compound 0.00316 µM, first compound 0.3 µM) 30.1% | viability, T/C (second compound 0.00316 µM, first compound 0.949 µM) 20.9% | viability, T/C (second compound 0.00316 µM, first compound 3 µM) 16.8% | viability, T/C (second compound 0.01 µM, first compound 0.00949 µM) 71.2% | viability, T/C (second compound 0.01 µM, first compound 0.03 µM) 50.9% | viability, T/C (second compound 0.01 µM, first compound 0.0949 µM) 33.8% | viability, T/C (second compound 0.01 µM, first compound 0.3 µM) 26.5% | viability, T/C (second compound 0.01 µM, first compound 0.949 µM) 26.5% | viability, T/C (second compound 0.01 µM, first compound 3 µM) 17.9% | viability, T/C (second compound 0.0316 µM, first compound 0.00949 µM) 79.1% | viability, T/C (second compound 0.0316 µM, first compound 0.03 µM) 65.3% | viability, T/C (second compound 0.0316 µM, first compound 0.0949 µM) 38.8% | viability, T/C (second compound 0.0316 µM, first compound 0.3 µM) 34.3% | viability, T/C (second compound 0.0316 µM, first compound 0.949 µM) 23.8% | viability, T/C (second compound 0.0316 µM, first compound 3 µM) 15.8% | viability, T/C (second compound 0.1 µM, first compound 0.00949 µM) 58% | viability, T/C (second compound 0.1 µM, first compound 0.03 µM) 46.4% | viability, T/C (second compound 0.1 µM, first compound 0.0949 µM) 39.7% | viability, T/C (second compound 0.1 µM, first compound 0.3 µM) 23.1% | viability, T/C (second compound 0.1 µM, first compound 0.949 µM) 16.8% | viability, T/C (second compound 0.1 µM, first compound 3 µM) 18.3% | viability, T/C (second compound 0.316 µM, first compound 0.00949 µM) 56.4% | viability, T/C (second compound 0.316 µM, first compound 0.03 µM) 45.3% | viability, T/C (second compound 0.316 µM, first compound 0.0949 µM) 22.7% | viability, T/C (second compound 0.316 µM, first compound 0.3 µM) 19% | viability, T/C (second compound 0.316 µM, first compound 0.949 µM) 16.8% | viability, T/C (second compound 0.316 µM, first compound 3 µM) 12.7% | viability, T/C (second compound 1 µM, first compound 0.00949 µM) 44.3% | viability, T/C (second compound 1 µM, first compound 0.03 µM) 31.3% | viability, T/C (second compound 1 µM, first compound 0.0949 µM) 20.7% | viability, T/C (second compound 1 µM, first compound 0.3 µM) 17.4% | viability, T/C (second compound 1 µM, first compound 0.949 µM) 17.4% | viability, T/C (second compound 1 µM, first compound 3 µM) 12%
> 8.02: pIC50 (second compound 1 µM)
7.74: pIC50 (second compound 0.316 µM)
7.30: pIC50 (second compound 0.00316 µM)
7.18: pIC50 (second compound 0.0316 µM)
